One assay deals with MCF7. Nature of the assay: Cytotoxicity against human MCF7 cells after 24 hrs by MTT assay. The format is functional, cell-based. The settings on record: MCF7, 24 h. A general note: Formazan colour is commonly taken as a measure of viable cells.
In assay [1] the test system is BT-483. Nature of the assay: Induction of apoptosis in human BT-483 cells assessed as live cells at 10 uM by Annexin V-FITC/propidium iodide staining based flow cytometry (reference value: 87.5%). The assay is classed as functional. On the technique in general: In flow cytometry, cells or beads pass a laser one at a time.
Assay [2] deals with BT-483. Nature of the assay: Induction of apoptosis in human BT-483 cells assessed as early apoptotic cells at 5 uM by Annexin V-FITC/propidium iodide staining based flow cytometry (reference value: 2.01%). The assay is classed as functional.
Assay [3] addresses Serine/threonine-protein kinase PLK1 (Homo sapiens, UniProt P53350). Nature of the assay: Inhibition of full length human PLK1 using casein as substrate after 40 mins in presence of [gamma-33P]-ATP by radiometric assay.
Assay [4] has as its target Phosphatidylinositol 4,5-bisphosphate 3-kinase catalytic subunit gamma isoform (Homo sapiens) (UniProt P48736). Nature of the assay: Inhibition of wild-type human partial length PIK3CG (S144 to A1102 residues) expressed in mammalian expression system assessed as residual activity at 1 uM by Kinomescan method relative to control.
Assay [5] addresses SRSF protein kinase 3 (Homo sapiens) (UniProt Q9UPE1). Nature of the assay: Inhibition of wild-type human partial length SRPK3 (P41 to P567 residues) expressed in bacterial expression system assessed as residual activity at 1 uM by Kinomescan method relative to control.
The subject of the next assay is MDA-MB-468. Nature of the assay: Cytotoxicity against human MDA-MB-468 cells after 24 hrs by MTT assay. The assay is classed as functional, cell-based.
Assay [6] concerns the target MAP/microtubule affinity-regulating kinase 3 (Homo sapiens) (UniProt P27448). Nature of the assay: Inhibition of wild-type human full length MARK3 (M1 to L729 residues) expressed in bacterial expression system assessed as residual activity at 1 uM by Kinomescan method relative to control.
In assay [7] the target is Testis-specific serine/threonine-protein kinase 1 (Homo sapiens) (UniProt Q9BXA7). Nature of the assay: Inhibition of wild-type human full length TSSK1B (M1 to Q367 residues) expressed in bacterial expression system assessed as residual activity at 1 uM by Kinomescan method relative to control.
The target in assay [8] is Serine/threonine-protein kinase Chk1 (Homo sapiens) (UniProt O14757). Nature of the assay: Inhibition of wild-type human partial length CHEK1 (M1 to G289 residues) expressed in bacterial expression system assessed as residual activity at 1 uM by Kinomescan method relative to control.
The subject of assay [9] is BT-483. Nature of the assay: Induction of autophagy in human BT-483 cells assessed as activation of LC3 at 5 to 10 uM by Western blot analysis. The assay is classed as functional, cell-based. On the technique in general: A western blot detects proteins with antibodies after separation by electrophoresis.
The target in assay [10] is Dual specificity mitogen-activated protein kinase kinase 2 (Homo sapiens) (UniProt P36507). Nature of the assay: Inhibition of wild-type human full length MEK2 (M1 to V400 residues) expressed in mammalian expression system assessed as residual activity at 1 uM by Kinomescan method relative to control.
Assay [11] relates to BT-483. Nature of the assay: Induction of apoptosis in human BT-483 cells assessed as early apoptotic cells at 10 uM by Annexin V-FITC/propidium iodide staining based flow cytometry (reference value: 2.01%). The assay is classed as functional.
The target in assay [12] is Mitogen-activated protein kinase 11 (Homo sapiens) (UniProt Q15759). Nature of the assay: Inhibition of wild-type human full length p38-beta (M1 to Q364 residues) expressed in bacterial expression system assessed as residual activity at 1 uM by Kinomescan method relative to control.
For assay [13], the target named is Serine/threonine-protein kinase pim-3 (Homo sapiens) (UniProt Q86V86). Nature of the assay: Inhibition of wild-type human partial length PIM3 (G16 to A317 residues) expressed in bacterial expression system assessed as residual activity at 1 uM by Kinomescan method relative to control.
Assay [14] addresses Cyclin-dependent kinase 3 (Homo sapiens) (UniProt Q00526). Nature of the assay: Inhibition of wild-type human full length CDK3 (M1 to H305 residues) expressed in bacterial expression system assessed as residual activity at 1 uM by Kinomescan method relative to control.
Assay [15] addresses Tyrosine-protein kinase BTK (Homo sapiens) (UniProt Q06187). Nature of the assay: Inhibition of wild-type human full length BTK (M1 to S659 residues) expressed in mammalian expression system assessed as residual activity at 1 uM by Kinomescan method relative to control.
Assay [16] deals with Cyclin-dependent kinase 16 (Homo sapiens) (UniProt Q00536). Nature of the assay: Inhibition of wild-type human partial length PCTK1 (G160 to A474 residues) expressed in mammalian expression system assessed as residual activity at 1 uM by Kinomescan method relative to control.
The target in assay [17] is Protein kinase C epsilon type (Homo sapiens) (UniProt Q02156). Nature of the assay: Inhibition of wild-type human partial length PRKCE (A378 to P737 residues) expressed in mammalian expression system assessed as residual activity at 1 uM by Kinomescan method relative to control.
In assay [18] the target is T1, Eukaryotic elongation factor 2 kinase (Homo sapiens) (UniProt O00418).
T1 sequence (whole entry): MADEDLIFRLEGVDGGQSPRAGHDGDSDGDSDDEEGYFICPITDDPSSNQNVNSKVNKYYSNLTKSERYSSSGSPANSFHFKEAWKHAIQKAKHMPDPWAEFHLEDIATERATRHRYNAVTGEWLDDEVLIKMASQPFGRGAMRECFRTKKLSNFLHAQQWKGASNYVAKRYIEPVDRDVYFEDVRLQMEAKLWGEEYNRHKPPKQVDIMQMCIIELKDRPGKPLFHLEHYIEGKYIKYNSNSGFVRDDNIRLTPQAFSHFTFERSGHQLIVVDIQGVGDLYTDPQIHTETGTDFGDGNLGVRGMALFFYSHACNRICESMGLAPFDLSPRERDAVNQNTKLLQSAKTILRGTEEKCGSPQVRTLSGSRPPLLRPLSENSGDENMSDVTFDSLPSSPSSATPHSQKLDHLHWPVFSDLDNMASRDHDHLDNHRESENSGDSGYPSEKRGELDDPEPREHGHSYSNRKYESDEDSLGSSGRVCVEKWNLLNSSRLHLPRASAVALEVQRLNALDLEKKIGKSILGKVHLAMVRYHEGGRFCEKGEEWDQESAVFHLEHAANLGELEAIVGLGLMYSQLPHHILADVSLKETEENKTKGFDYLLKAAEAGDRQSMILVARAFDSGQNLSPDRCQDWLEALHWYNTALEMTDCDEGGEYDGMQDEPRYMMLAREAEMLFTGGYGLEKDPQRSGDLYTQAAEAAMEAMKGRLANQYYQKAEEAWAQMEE
Nature of the assay: Inhibition of EEF2K (unknown origin) assessed as residual activity at 1 uM by Kinomescan assay relative to control.

The target of assay [19] is Cyclin-dependent kinase 2 (Homo sapiens) (UniProt P24941). Nature of the assay: Inhibition of wild-type human full length CDK2 (M1 to L298 residues) expressed in bacterial expression system assessed as residual activity at 1 uM by Kinomescan method relative to control.
The target of assay [20] is TGF-beta receptor type-1 (Homo sapiens) (UniProt P36897). Nature of the assay: Inhibition of wild-type human partial length TGFBR1 (D179 to M503 residues) expressed in bacterial expression system assessed as residual activity at 1 uM by Kinomescan method relative to control.
In assay [21] the test system is BT-483. Nature of the assay: Cell cycle arrest in human BT-483 cells assessed as accumulation at G2/M phase at 5 to 10 uM after 24 to 72 hrs. The assay is classed as functional, cell-based.

Activity calls are given as the source filed them. The calls are words filed in the database; no cut-off is given here.

Sequence of Phosphatidylinositol 4,5-bisphosphate 3-kinase catalytic subunit gamma isoform (Homo sapiens) (P48736 whole entry, looked up, the tested form may be a part, canonical isoform): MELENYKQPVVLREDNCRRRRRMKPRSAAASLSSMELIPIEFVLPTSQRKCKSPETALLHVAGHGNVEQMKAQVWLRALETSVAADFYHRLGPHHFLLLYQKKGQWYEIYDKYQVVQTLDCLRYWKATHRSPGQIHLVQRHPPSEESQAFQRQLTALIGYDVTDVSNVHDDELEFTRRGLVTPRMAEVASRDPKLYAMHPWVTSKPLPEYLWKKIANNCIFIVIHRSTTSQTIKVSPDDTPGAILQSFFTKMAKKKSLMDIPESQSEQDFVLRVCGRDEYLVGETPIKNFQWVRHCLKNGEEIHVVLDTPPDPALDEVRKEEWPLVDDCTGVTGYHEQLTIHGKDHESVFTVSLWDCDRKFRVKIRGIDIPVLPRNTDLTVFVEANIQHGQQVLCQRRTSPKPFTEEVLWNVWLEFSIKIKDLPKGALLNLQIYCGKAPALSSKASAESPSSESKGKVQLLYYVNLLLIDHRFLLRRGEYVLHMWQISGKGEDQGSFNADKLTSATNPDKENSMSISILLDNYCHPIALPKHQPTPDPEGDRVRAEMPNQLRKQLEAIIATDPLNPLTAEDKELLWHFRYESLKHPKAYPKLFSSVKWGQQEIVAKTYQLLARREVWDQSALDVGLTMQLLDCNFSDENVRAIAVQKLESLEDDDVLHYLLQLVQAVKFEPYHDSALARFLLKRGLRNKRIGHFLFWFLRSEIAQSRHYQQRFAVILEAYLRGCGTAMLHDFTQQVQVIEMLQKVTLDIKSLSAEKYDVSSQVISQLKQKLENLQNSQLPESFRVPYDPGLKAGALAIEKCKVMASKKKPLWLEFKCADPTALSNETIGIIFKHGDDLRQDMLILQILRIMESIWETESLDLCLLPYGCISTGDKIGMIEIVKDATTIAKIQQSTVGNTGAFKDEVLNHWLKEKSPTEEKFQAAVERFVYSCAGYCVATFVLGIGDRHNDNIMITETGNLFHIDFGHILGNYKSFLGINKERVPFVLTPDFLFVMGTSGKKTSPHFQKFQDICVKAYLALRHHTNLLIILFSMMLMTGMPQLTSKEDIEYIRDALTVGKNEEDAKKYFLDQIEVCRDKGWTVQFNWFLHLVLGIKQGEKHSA
Sequence of SRSF protein kinase 3 (Homo sapiens) (Q9UPE1 whole entry, the tested form may be a part): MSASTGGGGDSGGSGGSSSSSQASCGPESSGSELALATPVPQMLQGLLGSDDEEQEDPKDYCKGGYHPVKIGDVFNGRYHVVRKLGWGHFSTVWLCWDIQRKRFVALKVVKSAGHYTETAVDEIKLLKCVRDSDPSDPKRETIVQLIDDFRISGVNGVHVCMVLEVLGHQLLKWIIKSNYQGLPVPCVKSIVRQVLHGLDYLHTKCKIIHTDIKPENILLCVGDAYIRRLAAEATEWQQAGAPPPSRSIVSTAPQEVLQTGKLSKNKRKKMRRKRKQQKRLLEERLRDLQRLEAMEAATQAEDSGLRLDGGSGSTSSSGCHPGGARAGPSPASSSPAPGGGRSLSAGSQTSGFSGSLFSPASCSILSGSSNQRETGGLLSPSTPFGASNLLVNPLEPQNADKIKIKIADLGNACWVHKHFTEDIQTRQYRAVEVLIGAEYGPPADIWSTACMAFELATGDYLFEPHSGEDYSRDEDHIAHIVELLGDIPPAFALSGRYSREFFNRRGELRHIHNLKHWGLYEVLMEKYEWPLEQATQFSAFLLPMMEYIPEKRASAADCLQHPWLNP
Sequence of TGF-beta receptor type-1 (Homo sapiens) (P36897 whole entry, the tested form may be a part): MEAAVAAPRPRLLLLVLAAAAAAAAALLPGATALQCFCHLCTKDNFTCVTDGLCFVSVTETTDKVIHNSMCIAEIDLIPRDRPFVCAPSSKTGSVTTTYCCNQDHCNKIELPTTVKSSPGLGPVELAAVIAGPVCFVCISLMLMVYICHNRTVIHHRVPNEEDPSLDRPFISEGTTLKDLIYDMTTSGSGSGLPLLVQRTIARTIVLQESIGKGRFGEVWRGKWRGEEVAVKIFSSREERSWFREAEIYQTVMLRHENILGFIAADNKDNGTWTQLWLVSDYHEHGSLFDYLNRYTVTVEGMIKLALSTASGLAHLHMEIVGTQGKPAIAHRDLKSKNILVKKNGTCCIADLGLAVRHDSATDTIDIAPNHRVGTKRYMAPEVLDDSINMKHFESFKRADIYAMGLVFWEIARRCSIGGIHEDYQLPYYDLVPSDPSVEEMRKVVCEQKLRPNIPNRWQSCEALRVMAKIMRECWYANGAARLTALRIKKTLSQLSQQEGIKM
Sequence of Testis-specific serine/threonine-protein kinase 1 (Homo sapiens) (Q9BXA7 whole entry, the tested form may be a part): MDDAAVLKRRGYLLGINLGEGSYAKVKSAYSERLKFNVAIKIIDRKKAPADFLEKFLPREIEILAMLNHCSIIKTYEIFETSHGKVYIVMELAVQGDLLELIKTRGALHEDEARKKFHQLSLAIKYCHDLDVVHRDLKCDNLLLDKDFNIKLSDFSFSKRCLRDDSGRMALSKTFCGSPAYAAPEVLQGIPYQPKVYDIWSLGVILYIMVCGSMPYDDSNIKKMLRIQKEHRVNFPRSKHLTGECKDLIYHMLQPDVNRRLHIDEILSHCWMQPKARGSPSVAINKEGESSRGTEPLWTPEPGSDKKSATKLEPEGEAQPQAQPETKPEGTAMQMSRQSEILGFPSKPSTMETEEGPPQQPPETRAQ
Sequence of Cyclin-dependent kinase 16 (Homo sapiens) (Q00536 whole entry, the tested form may be a part): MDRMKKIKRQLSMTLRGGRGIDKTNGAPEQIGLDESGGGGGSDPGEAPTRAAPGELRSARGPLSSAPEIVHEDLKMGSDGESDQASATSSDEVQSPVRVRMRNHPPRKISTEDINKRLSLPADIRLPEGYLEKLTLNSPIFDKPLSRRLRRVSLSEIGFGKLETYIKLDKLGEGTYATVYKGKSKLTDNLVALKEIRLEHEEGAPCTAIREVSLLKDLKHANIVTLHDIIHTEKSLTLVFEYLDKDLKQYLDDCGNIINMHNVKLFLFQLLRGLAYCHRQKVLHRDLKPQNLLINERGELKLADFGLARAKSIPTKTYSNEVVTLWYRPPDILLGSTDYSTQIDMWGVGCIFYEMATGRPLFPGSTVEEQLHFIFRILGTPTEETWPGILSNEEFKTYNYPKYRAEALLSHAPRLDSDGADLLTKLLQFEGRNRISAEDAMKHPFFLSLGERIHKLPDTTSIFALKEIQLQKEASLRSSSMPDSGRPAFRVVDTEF
Sequence of Serine/threonine-protein kinase Chk1 (Homo sapiens) (O14757 whole entry, the tested form may be a part): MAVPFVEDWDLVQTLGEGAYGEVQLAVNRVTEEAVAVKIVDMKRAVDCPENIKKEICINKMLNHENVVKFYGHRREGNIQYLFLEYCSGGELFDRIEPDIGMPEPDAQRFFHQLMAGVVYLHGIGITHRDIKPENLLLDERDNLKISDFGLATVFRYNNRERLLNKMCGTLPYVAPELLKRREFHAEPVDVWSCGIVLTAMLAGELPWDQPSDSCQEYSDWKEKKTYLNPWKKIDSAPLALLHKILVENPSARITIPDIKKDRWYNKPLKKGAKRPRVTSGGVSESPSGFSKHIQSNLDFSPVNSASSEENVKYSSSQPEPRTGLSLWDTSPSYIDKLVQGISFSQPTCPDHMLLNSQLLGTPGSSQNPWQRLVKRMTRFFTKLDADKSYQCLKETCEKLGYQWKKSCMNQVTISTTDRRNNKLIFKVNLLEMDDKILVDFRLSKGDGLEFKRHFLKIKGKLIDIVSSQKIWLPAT
Sequence of MAP/microtubule affinity-regulating kinase 3 (Homo sapiens) (P27448 whole entry, looked up, the tested form may be a part): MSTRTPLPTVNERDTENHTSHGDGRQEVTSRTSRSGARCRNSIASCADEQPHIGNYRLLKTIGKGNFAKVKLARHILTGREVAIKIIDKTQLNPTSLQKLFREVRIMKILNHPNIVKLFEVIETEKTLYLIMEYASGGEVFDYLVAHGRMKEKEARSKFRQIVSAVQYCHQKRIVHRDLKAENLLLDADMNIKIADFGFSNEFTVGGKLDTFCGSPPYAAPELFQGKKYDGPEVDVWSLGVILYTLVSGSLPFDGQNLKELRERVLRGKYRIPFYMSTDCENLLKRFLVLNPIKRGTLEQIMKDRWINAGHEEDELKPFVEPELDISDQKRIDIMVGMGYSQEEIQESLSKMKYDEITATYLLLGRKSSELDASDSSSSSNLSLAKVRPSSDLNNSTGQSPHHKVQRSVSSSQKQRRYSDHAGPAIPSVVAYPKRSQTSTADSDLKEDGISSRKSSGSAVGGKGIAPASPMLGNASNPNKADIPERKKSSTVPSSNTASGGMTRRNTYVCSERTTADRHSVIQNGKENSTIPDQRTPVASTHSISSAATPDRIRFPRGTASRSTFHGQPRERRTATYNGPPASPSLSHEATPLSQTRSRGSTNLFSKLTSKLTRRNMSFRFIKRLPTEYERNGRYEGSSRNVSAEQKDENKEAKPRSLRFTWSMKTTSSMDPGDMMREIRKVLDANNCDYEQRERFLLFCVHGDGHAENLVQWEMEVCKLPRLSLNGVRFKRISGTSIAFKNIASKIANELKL
Sequence of Tyrosine-protein kinase BTK (Homo sapiens) (Q06187 whole entry, the tested form may be a part): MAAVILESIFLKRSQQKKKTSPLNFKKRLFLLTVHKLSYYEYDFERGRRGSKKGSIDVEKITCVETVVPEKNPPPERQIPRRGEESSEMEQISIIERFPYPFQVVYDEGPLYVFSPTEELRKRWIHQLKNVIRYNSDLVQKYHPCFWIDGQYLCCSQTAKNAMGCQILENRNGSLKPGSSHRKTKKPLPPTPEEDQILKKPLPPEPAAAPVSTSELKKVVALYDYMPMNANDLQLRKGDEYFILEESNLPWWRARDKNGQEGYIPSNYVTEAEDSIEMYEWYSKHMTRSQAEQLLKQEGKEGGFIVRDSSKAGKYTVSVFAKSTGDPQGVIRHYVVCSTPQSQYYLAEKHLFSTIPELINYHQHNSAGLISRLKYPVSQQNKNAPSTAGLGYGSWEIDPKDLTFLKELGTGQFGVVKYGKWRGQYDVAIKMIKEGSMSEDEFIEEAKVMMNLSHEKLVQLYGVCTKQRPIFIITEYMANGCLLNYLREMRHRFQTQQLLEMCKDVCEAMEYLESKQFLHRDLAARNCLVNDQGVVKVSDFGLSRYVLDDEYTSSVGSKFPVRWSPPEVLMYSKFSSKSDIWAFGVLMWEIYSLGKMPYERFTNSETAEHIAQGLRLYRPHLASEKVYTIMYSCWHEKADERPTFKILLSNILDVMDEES

The IC50 is the concentration needed to halve the response being measured. For the compound `CCNc1cc(-c2ccc(NC(=O)Nc3cccc(Cl)c3)cc2C(F)(F)F)ccn1`, the IC50 turned out to be 1.24 µM in the assay with MCF7 and 0.085 µM in assay [3]. Moreover, the Activity amounted to 78.2% with BT-483 [1]; 8.64% in the assay on BT-483 [2]; 74% in [4]; 98% in [5]; 90% in [6]; 64% in assay [7]. The Activity in [8] came out at 81%; in assay [10] it was 67%; in the assay on BT-483 [11] it was 8.72%; in assay [12] it was 60%; in assay [13], 100%; in assay [14], 87%. Besides, the Activity in [15] was found to be 83%; in assay [16], 66%; in [17], 67%; in assay [18], 11%; in [19], 98%; in assay [20], 86%. In addition, the outcome in the assay with MDA-MB-468, in the assay on BT-483 [9] and with BT-483 [21] was Active.

(Values after ChEMBL document CHEMBL4251622, “Design, synthesis, and biological evaluation of polo-like kinase 1/eukaryotic elongation factor 2 kinase (PLK1/EEF2K) dual inhibitors for regulating breast cancer cells apoptosis and autophagy” (Eur J Med Chem, 2018).)
